Source: patent US11752126B2, “Stable cannabinoid compositions” (Sino-German M&A Service GmbH, priority 2017, dated 2023)

Test: THC content over time in different stabilizing systems (FIG. 1)
Assay type: physicochemical
Excerpt: In the lower data set, the initial concentration of THC is reduced to 91% at day 93 with respect to the initial concentration of THC at day 0.

Compound: CCCCCc1cc(O)c2c(c1)OC(C)(C)[C@@H]1CCC(C)=C[C@@H]21 [THC, tetrahydrocannabinol]
- evolution of the relative concentration of tetrahydrocannabinol (THC) (system including 1 weight percent tocopherol, over time): nearly flat over time
- relative concentration of tetrahydrocannabinol (THC) (system including no tocopherol, day 93, with respect to the initial concentration of THC at day 0): 91%
